Measured values as given in PubChem BioAssay AID1259407 (Chemical Carcinogenesis Research Information System (CCRIS), 2018).
Calls of active or inactive are those of the source. The rule behind the calls is not given here.

System: CCRIS mutagenicity, Ames/micronucleus/aberration tests
Assay: CCRIS mutagenicity studies
[1] = Test System: AMES SALMONELLA TYPHIMURIUM, Strain/Indicator: TA98, Metabolic Activation: NONE, Method: PREINCUBATION
[2] = Test System: AMES SALMONELLA TYPHIMURIUM, Strain/Indicator: TA98, Metabolic Activation: RAT, LIVER, S-9, KC 500, Method: PREINCUBATION
[3] = Test System: AMES SALMONELLA TYPHIMURIUM, Strain/Indicator: TA100, Metabolic Activation: NONE, Method: PREINCUBATION
[4] = Test System: AMES SALMONELLA TYPHIMURIUM, Strain/Indicator: TA100, Metabolic Activation: RAT, LIVER, S-9, KC 500, Method: PREINCUBATION
[5] = Test System: AMES SALMONELLA TYPHIMURIUM, Strain/Indicator: TA1535, Metabolic Activation: NONE, Method: PREINCUBATION
[6] = Test System: AMES SALMONELLA TYPHIMURIUM, Strain/Indicator: TA1535, Metabolic Activation: RAT, LIVER, S-9, KC 500, Method: PREINCUBATION
[7] = Test System: AMES SALMONELLA TYPHIMURIUM, Strain/Indicator: TA1537, Metabolic Activation: NONE, Method: PREINCUBATION
[8] = Test System: AMES SALMONELLA TYPHIMURIUM, Strain/Indicator: TA1537, Metabolic Activation: RAT, LIVER, S-9, KC 500, Method: PREINCUBATION
[9] = Test System: AMES SALMONELLA TYPHIMURIUM, Strain/Indicator: TA1538, Metabolic Activation: NONE, Method: PREINCUBATION
[10] = Test System: AMES SALMONELLA TYPHIMURIUM, Strain/Indicator: TA1538, Metabolic Activation: RAT, LIVER, S-9, KC 500, Method: PREINCUBATION
[11] = Test System: E. COLI, Strain/Indicator: WP2 UVRA, Metabolic Activation: NONE, Method: PREINCUBATION
[12] = Test System: E. COLI, Strain/Indicator: WP2 UVRA, Metabolic Activation: RAT, LIVER, S-9, KC 500, Method: PREINCUBATION
[13] = Test System: AMES SALMONELLA TYPHIMURIUM, Strain/Indicator: TA98, Metabolic Activation: NONE, Method: STANDARD PLATE
[14] = Test System: AMES SALMONELLA TYPHIMURIUM, Strain/Indicator: TA100, Metabolic Activation: NONE, Method: STANDARD PLATE

Measured: mutagenic call

NC(N)=O
inactive: [1] inactive; negative | [2] inactive; negative | [3] inactive; negative | [4] inactive; negative | [5] inactive; negative | [6] inactive; negative | [7] inactive; negative | [8] inactive; negative | [9] inactive; negative | [10] inactive; negative | [11] inactive; negative | [12] inactive; negative
active: Test System: MOUSE LYMPHOMA, Strain/Indicator: L5178Y (TK+/TK-), Metabolic Activation: NONE, Method: SUSPENSION/PLATE active; positive

Cc1cc(-c2ccc(N=C=O)c(C)c2)ccc1N=C=O
active: End Point: IN VITRO CHROMOSOMAL ABERRATIONS, Test System: CHL CELLS, Metabolic Activation: RAT, LIVER, S-9, SODIUM PHENOBARBITAL AND 5,6-BENZOFLAVONE active; positive (structural changes) | Test System: AMES SALMONELLA TYPHIMURIUM, Strain/Indicator: TA98, Metabolic Activation: RAT LIVER S-9, PHENOBARBITAL AND BETA-NAPHTHOFLAVONE, Method: PREINCUBATION active; positive | Test System: AMES SALMONELLA TYPHIMURIUM, Strain/Indicator: TA1538, Metabolic Activation: RAT LIVER S-9, PHENOBARBITAL AND BETA-NAPHTHOFLAVONE, Method: PREINCUBATION active; positive
inactive: [1] inactive; negative | [3] inactive; negative | Test System: AMES SALMONELLA TYPHIMURIUM, Strain/Indicator: TA100, Metabolic Activation: RAT LIVER S-9, PHENOBARBITAL AND BETA-NAPHTHOFLAVONE, Method: PREINCUBATION inactive; negative | [5] inactive; negative | Test System: AMES SALMONELLA TYPHIMURIUM, Strain/Indicator: TA1535, Metabolic Activation: RAT LIVER S-9, PHENOBARBITAL AND BETA-NAPHTHOFLAVONE, Method: PREINCUBATION inactive; negative | [7] inactive; negative | Test System: AMES SALMONELLA TYPHIMURIUM, Strain/Indicator: TA1537, Metabolic Activation: RAT LIVER S-9, PHENOBARBITAL AND BETA-NAPHTHOFLAVONE, Method: PREINCUBATION inactive; negative | [9] inactive; negative | Test System: E.COLI, Strain/Indicator: WP2UVRA, Metabolic Activation: NONE, Method: PREINCUBATION inactive; negative | Test System: E.COLI, Strain/Indicator: WP2UVRA, Metabolic Activation: RAT LIVER S-9, PHENOBARBITAL AND BETA-NAPHTHOFLAVONE, Method: PREINCUBATION inactive; negative

Nc1ccc(-c2cc([N+](=O)[O-])c(N)c(Cl)c2Cl)cc1
active: Test System: Ames Salmonella typhimurium, Strain/Indicator: TA98, Metabolic Activation: None, Method: Preincubation active; positive. weak response. | Test System: Ames Salmonella typhimurium, Strain/Indicator: TA98, Metabolic Activation: Rat, Liver, S-9, Phenobarbital and 5,6-benzoflavone, Method: Preincubation active; positive | Test System: Ames Salmonella typhimurium, Strain/Indicator: TA100, Metabolic Activation: Rat, Liver, S-9, Phenobarbital and 5,6-benzoflavone, Method: Preincubation active; positive | Test System: Ames Salmonella typhimurium, Strain/Indicator: YG1024, Metabolic Activation: None, Method: Preincubation active; positive | Test System: Ames Salmonella typhimurium, Strain/Indicator: YG1024, Metabolic Activation: Rat, Liver, S-9, Phenobarbital and 5,6-benzoflavone, Method: Preincubation active; positive | Test System: Ames Salmonella typhimurium, Strain/Indicator: YG1029, Metabolic Activation: Rat, Liver, S-9, Phenobarbital and 5,6-benzoflavone, Method: Preincubation active; positive
inactive: Test System: Ames Salmonella typhimurium, Strain/Indicator: TA100, Metabolic Activation: None, Method: Preincubation inactive; negative | Test System: Ames Salmonella typhimurium, Strain/Indicator: YG1029, Metabolic Activation: None, Method: Preincubation inactive; negative

CNC(=O)N(C)C(=O)NO
inactive: [13] inactive; negative | [14] inactive; negative

CCCCCCCCCc1ccc(O)cc1
inactive: Test System: AMES SALMONELLA TYPHIMURIUM, Strain/Indicator: TA97, Metabolic Activation: NONE, Method: PREINCUBATION inactive; negative | Test System: AMES SALMONELLA TYPHIMURIUM, Strain/Indicator: TA97, Metabolic Activation: S-9, Method: PREINCUBATION inactive; negative | [2] inactive; negative | Test System: AMES SALMONELLA TYPHIMURIUM, Strain/Indicator: TA98, Metabolic Activation: RAT, LIVER, S-9, SODIUM PHENOBARBITAL AND 5,6-BENZOFLAVONE, Method: PREINCUBATION inactive; negative | Test System: AMES SALMONELLA TYPHIMURIUM, Strain/Indicator: TA98, Metabolic Activation: S-9, Method: PREINCUBATION inactive; negative | [4] inactive; negative | Test System: AMES SALMONELLA TYPHIMURIUM, Strain/Indicator: TA100, Metabolic Activation: RAT, LIVER, S-9, SODIUM PHENOBARBITAL AND 5,6-BENZOFLAVONE, Method: PREINCUBATION inactive; negative | Test System: AMES SALMONELLA TYPHIMURIUM, Strain/Indicator: TA100, Metabolic Activation: S-9, Method: PREINCUBATION inactive; negative | Test System: AMES SALMONELLA TYPHIMURIUM, Strain/Indicator: TA102, Metabolic Activation: RAT, LIVER, S-9, SODIUM PHENOBARBITAL AND 5,6-BENZOFLAVONE, Method: PREINCUBATION inactive; negative | Test System: AMES SALMONELLA TYPHIMURIUM, Strain/Indicator: TA102, Metabolic Activation: S-9, Method: PREINCUBATION inactive; negative | Test System: AMES SALMONELLA TYPHIMURIUM, Strain/Indicator: TA104, Metabolic Activation: NONE, Method: PREINCUBATION inactive; negative | Test System: AMES SALMONELLA TYPHIMURIUM, Strain/Indicator: TA104, Metabolic Activation: RAT, LIVER, S-9, SODIUM PHENOBARBITAL AND 5,6-BENZOFLAVONE, Method: PREINCUBATION inactive; negative | Test System: AMES SALMONELLA TYPHIMURIUM, Strain/Indicator: TA104, Metabolic Activation: S-9, Method: PREINCUBATION inactive; negative | [5] inactive; negative | [6] inactive; negative | Test System: AMES SALMONELLA TYPHIMURIUM, Strain/Indicator: TA1535, Metabolic Activation: RAT, LIVER, S-9, SODIUM PHENOBARBITAL AND 5,6-BENZOFLAVONE, Method: PREINCUBATION inactive; negative | [7] inactive; negative | [8] inactive; negative | Test System: AMES SALMONELLA TYPHIMURIUM, Strain/Indicator: TA1537, Metabolic Activation: RAT, LIVER, S-9, SODIUM PHENOBARBITAL AND 5,6-BENZOFLAVONE, Method: PREINCUBATION inactive; negative | [9] inactive; negative | [10] inactive; negative | Test System: E. COLI, Strain/Indicator: WP2UVRA/PKM101, Metabolic Activation: NONE, Method: PREINCUBATION inactive; negative | Test System: E. COLI, Strain/Indicator: WP2UVRA/PKM101, Metabolic Activation: RAT, LIVER, S-9, SODIUM PHENOBARBITAL AND 5,6-BENZOFLAVONE, Method: PREINCUBATION inactive; negative | [11] inactive; negative | Test System: E. COLI, Strain/Indicator: WP2UVRA, Metabolic Activation: NONE, Method: PREINCUBATION inactive; negative | [12] inactive; negative | Test System: E. COLI, Strain/Indicator: WP2UVRA, Metabolic Activation: RAT, LIVER, S-9, SODIUM PHENOBARBITAL AND 5,6-BENZOFLAVONE, Method: PREINCUBATION inactive; negative

Cc1cc(C)c2ccc3ccccc3c2c1
active: Test System: AMES SALMONELLA TYPHIMURIUM, Strain/Indicator: TA98, Metabolic Activation: RAT, LIVER, S-9, AROCLOR 1254, Method: STANDARD PLATE active; positive | Test System: AMES SALMONELLA TYPHIMURIUM, Strain/Indicator: TA100, Metabolic Activation: RAT, LIVER, S-9, AROCLOR 1254, Method: STANDARD PLATE active; positive
inactive: [13] inactive; negative | [14] inactive; negative
